According to patent US9108950B2, “1-pyrazolyl-3-(4-((2-anilinopyrimidin-4-yl)oxy)napththalen-1-yl) ureas as p38 MAP kinase inhibitors” (Respivert Ltd., priority 2011, dated 2015):

How the values were obtained:
[1] = Physical stability on storage (TGA, XRPD, IR, DSC, appearance); type: physicochemical; set-up: key to XRD / IR: Cryst.: crystalline; ~Ref: pattern identical with reference sample; details: for Appearance / IR / XRD / DSC max / TGA <100° C. weight loss / TGA <180° C. weight loss: form B micronized
Protocol: Patterns were obtained on a PANalytical (Philips) X'PertPRO MPD diffractometer equipped with a Cu LFF X-ray tube (45 kV; 40 mA; Bragg-Brentano; spinner stage) and were acquired using Cu Kα radiation under the following measurement conditions: scan mode: continuous; scan range: 3 to 50° 2θ; step size: 0.02°/step; counting time: 30 sec/step; spinner revolution time: 1 sec; incident beam path: program. divergence slit: 15 mm; Soller slit: 0.04 rad; beam mask: 15 mm; anti scatter slit: 1°; beam knife: +; Diffracted beam path: long anti scatter shield: +; Soller slit: 0.04 rad; Ni filter: +; detector: X'Celerator. Samples were prepared by spreading on a zero background sample holder.
Micro attenuated total reflectance (microATR) was used and the sample was analyzed using a suitable microATR accessory and the following measurement conditions: apparatus: Thermo Nexus 670 FTIR spectrometer; number of scans: 32; resolution: 1 cm^−1; wavelength range: 4000 to 400 cm^−1; detector: DTGS with KBr windows; beamsplitter: Ge on KBr; micro ATR accessory: Harrick Split Pea with Si crystal.
Data were collected on a TA-Instruments Q1000 MTDSC equipped with RCS cooling unit. Typically 3 mg of each compound, in a standard aluminium TA-Instrument sample pan, was heated at 10° C./min from 25 C to 300° C. A nitrogen purge at 50 mL/min was maintained over the sample.
Data were collected on a TA-Instruments Q500 thermogravimeter Typically 10 mg of each sample was transferred into a pre-weighed aluminium pan and was heated at 20° C./min from ambient temperature to 300° C. or […] unless otherwise stated.
Thermal analysis of Compound (I) as the anhydrous free base in crystalline polymorphic form B (micronized) was undertaken using TGA, DVS, XRPD analysis, IR spectroscopy and DSC as described in General Procedures. Where appropriate, a sample at ambient temperature and relative humidity (reference sample/“0 days”) was compared with samples stored at various temperatures and relative humidities (comparative samples).
The reference sample (t=0) and the comparative samples that were exposed prior to analysis to different storage conditions, were heated at a rate of 20° C./min from RT to 300° C. The TGA curve of the reference sample (t=0) is illustrated in FIG. 3 and the results for all samples are summarised below (Table 8). […] The weight loss that occurred above 180° C. was due to evaporation and decomposition of the product. Comparing this weight loss profile with those of the comparative samples in Table 8, no significant differences were observed.
The XPRD diffraction pattern of the reference sample (t=0) is illustrated in FIG. 2 and the IR trace is illustrated in FIG. 6. The diffraction pattern and IR trace were compared with those of the comparative samples (exposed to different storage conditions) and the results are summarised in Table 8. The diffraction patterns and IR traces were identical for all samples.
The reference sample (t=0) and comparative samples, previously exposed to different storage conditions, were heated at a rate of 10° C./min from 25° C. to 300° C. The DSC curve of the reference sample is illustrated in FIG. 7 and the results for all samples are summarised below (Table 8). From FIG. 7, it is evident that the reference sample melted with decomposition at 214.0° C.

[2] = tested on: BEAS2B cells; test: Poly I:C-induced ICAM-1 expression in BEAS2B cells; type: cell-based; details: Homo sapiens, BEAS-2B, read-out: PolyIC/ICAM1 IC50 (BEAS2B)
Protocol: Poly I:C was used in these studies as a simple, RNA virus mimic. Poly I:C-Oligofectamine mixture (1 μg/mL Poly I:C, ±2% Oligofectamine, 25 μL; Invivogen Ltd., San Diego, Calif., and Invitrogen, Carlsbad, Calif., respectively) was transfected into BEAS2B cells (human bronchial epithelial cells, ATCC). Cells were pre-incubated with final concentrations of test compounds for 2 hr and the level of ICAM-1 expression on the cell surface was determined by cell-based ELISA. […]
The cells were washed with PBS-Tween (3×200 μL) and incubated with the secondary antibody (100 μL; HRP-conjugated anti-rabbit IgG, Dako Ltd., Glostrup, Denmark). […] The ICAM-1 signal was detected by reading […] the absorbance at 450 nm against a reference wavelength of 655 nm using a spectrophotometer. The cells were then washed with PBS-Tween (3×200 μL) and total cell numbers in each well were determined by reading absorbance at 595 nm after Crystal Violet staining (50 μL of a 2% solution in PBS) and elution by 1% SDS solution (100 μL) in distilled water. The measured OD 450-655 readings were corrected for cell number by dividing with the OD595 reading in each well. The inhibition of ICAM-1 expression was calculated at each concentration of test compound by comparison with vehicle control.

Cc1ccc(-n2nc(C(C)(C)C)cc2NC(=O)Nc2ccc(Oc3ccnc(Nc4ccccc4)n3)c3ccccc23)cc1 [Compound (I), 1-(3-(tert-Butyl)-1-(p-tolyl)-1H-pyrazol-5-yl)-3-(4-((2-(phenylamino)pyrimidin-4-yl)oxy)naphthalen-1-yl)urea]
physical stability ([1]; form B): good physical stability
Appearance ([1]; 1 week/70° C./75% RH): off-white
IR ([1]; 1 week/70° C./75% RH): ~Ref
XRD ([1]; 1 week/70° C./75% RH): ~Ref
Appearance ([1]; 1 week/80° C.): off-white
IR ([1]; 1 week/80° C.): ~Ref
XRD ([1]; 1 week/80° C.): ~Ref
Appearance ([1]; 4 weeks/40° C./75% RH): off-white
DSC max ([1]; 4 weeks/40° C./75% RH): 214 °C
IR ([1]; 4 weeks/40° C./75% RH): ~Ref
TGA <100° C. weight loss ([1]; 4 weeks/40° C./75% RH): 0.8%
TGA <180° C. weight loss ([1]; 4 weeks/40° C./75% RH): 0.3%
XRD ([1]; 4 weeks/40° C./75% RH): ~Ref
Appearance ([1]; 4 weeks/50° C.): off-white
DSC max ([1]; 4 weeks/50° C.): 214 °C
IR ([1]; 4 weeks/50° C.): ~Ref
TGA <100° C. weight loss ([1]; 4 weeks/50° C.): 1.3%
TGA <180° C. weight loss ([1]; 4 weeks/50° C.): 0.5%
XRD ([1]; 4 weeks/50° C.): ~Ref
Appearance ([1]; 4 weeks/RT/56% RH): off-white
DSC max ([1]; 4 weeks/RT/56% RH): 214 °C
IR ([1]; 4 weeks/RT/56% RH): ~Ref
TGA <100° C. weight loss ([1]; 4 weeks/RT/56% RH): 0.5%
TGA <180° C. weight loss ([1]; 4 weeks/RT/56% RH): 0.4%
XRD ([1]; 4 weeks/RT/56% RH): ~Ref
Appearance ([1]; 4 weeks/RT/75% RH): off-white
DSC max ([1]; 4 weeks/RT/75% RH): 214 °C
IR ([1]; 4 weeks/RT/75% RH): ~Ref
TGA <100° C. weight loss ([1]; 4 weeks/RT/75% RH): 0.9%
TGA <180° C. weight loss ([1]; 4 weeks/RT/75% RH): 0.5%
XRD ([1]; 4 weeks/RT/75% RH): ~Ref
Appearance ([1]; 4 weeks/RT/<5% RH): off-white
DSC max ([1]; 4 weeks/RT/<5% RH): 214 °C
IR ([1]; 4 weeks/RT/<5% RH): ~Ref
TGA <100° C. weight loss ([1]; 4 weeks/RT/<5% RH): 0.8%
TGA <180° C. weight loss ([1]; 4 weeks/RT/<5% RH): 0.5%
XRD ([1]; 4 weeks/RT/<5% RH): ~Ref
Appearance ([1]; T = zero): off-white
DSC max ([1]; T = zero): 214 °C
IR ([1]; T = zero): Cryst.
TGA <180° C. weight loss ([1]; T = zero): 0.6%
XRD ([1]; T = zero): Cryst.
IC50 [2]: 10.2 nM
